From ChEMBL document CHEMBL1909046, “DrugMatrix in vitro pharmacology data”
pIC50, pKi: −log10 of the molar value.

Tests used:
[1] = biological target: T1, Alpha-1B adrenergic receptor (Rattus norvegicus, UniProt P15823); experiment: DRUGMATRIX: Alpha-1B adrenergic receptor radioligand binding (ligand: prazosin); type: cell membranes, Wistar, Liver, Membrane; conditions: Not Active = under 50% inhibition at 10 µM
T1 sequence (P15823 whole entry): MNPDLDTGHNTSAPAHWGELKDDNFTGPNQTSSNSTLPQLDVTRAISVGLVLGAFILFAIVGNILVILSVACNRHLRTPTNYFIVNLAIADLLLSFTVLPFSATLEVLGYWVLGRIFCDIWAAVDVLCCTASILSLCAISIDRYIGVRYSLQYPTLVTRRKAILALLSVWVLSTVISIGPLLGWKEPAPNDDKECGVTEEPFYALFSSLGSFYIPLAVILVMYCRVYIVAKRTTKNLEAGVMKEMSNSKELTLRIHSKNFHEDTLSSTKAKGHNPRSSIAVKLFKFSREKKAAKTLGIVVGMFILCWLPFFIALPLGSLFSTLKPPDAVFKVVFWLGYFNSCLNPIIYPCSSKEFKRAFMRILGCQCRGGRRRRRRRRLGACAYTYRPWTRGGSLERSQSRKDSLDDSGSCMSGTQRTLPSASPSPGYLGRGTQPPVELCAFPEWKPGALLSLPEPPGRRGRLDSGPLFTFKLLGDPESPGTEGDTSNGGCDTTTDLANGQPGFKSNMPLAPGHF

Cytochrome P450 2C19 = Cytochrome P450 2C19 (Homo sapiens, UniProt P33261); conditions: bti-tn-5b1-4; note: in other assays of this panel Not Active means under 50% inhibition at 10 µM
[2] = DRUGMATRIX: Tumor Necrosis Factor (TNF), Non-Selective radioligand binding (ligand: [125I] TNF-alpha); type: cell membranes, Membrane; conditions: u-937; Not Active = under 50% inhibition at 10 µM
[3] = DRUGMATRIX: Imidazoline I2, Central radioligand binding (ligand: [3H] Idazoxan); type: cell membranes, Rattus norvegicus, Wistar, Cerebral cortex, Membrane; conditions: Not Active = under 50% inhibition at 10 µM
[4] = DRUGMATRIX: Sodium/nucleoside co-transporter radioligand binding (ligand: nitrobenzylthioinosine); type: cell membranes, Cavia porcellus, Dunkin-Hartley, Cerebral cortex, Membrane; conditions: Not Active = under 50% inhibition at 10 µM
Melanocortin receptor 3 = Melanocortin receptor 3 (Homo sapiens, UniProt P41968); type: cell membranes, HEK293, Membrane; conditions: hek293; note: in other assays of this panel Not Active means under 50% inhibition at 10 µM
Cytochrome P450 2D6 = Cytochrome P450 2D6 (Homo sapiens, UniProt P10635); conditions: bti-tn-5b1-4; note: in other assays of this panel Not Active means under 50% inhibition at 10 µM
Cytochrome P450 2E1 = Cytochrome P450 2E1 (Homo sapiens, UniProt P05181); conditions: bti-tn-5b1-4; note: in other assays of this panel Not Active means under 50% inhibition at 10 µM
Cytochrome P450 2E1, sequence (P05181 whole entry): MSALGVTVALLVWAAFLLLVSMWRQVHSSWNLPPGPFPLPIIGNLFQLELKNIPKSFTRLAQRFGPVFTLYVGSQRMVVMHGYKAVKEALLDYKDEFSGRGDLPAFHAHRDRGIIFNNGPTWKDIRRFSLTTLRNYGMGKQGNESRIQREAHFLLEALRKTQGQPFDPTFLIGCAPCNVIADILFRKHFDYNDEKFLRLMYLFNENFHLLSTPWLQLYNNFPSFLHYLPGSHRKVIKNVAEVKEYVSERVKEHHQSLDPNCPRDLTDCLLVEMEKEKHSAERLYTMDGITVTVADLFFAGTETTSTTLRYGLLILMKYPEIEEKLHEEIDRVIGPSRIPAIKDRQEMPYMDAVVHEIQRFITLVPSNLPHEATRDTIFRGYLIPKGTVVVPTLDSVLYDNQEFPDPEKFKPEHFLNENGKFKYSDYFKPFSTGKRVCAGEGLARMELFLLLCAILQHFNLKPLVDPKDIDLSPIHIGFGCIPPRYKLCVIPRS

Cytochrome P450 2D6, sequence (P10635 whole entry): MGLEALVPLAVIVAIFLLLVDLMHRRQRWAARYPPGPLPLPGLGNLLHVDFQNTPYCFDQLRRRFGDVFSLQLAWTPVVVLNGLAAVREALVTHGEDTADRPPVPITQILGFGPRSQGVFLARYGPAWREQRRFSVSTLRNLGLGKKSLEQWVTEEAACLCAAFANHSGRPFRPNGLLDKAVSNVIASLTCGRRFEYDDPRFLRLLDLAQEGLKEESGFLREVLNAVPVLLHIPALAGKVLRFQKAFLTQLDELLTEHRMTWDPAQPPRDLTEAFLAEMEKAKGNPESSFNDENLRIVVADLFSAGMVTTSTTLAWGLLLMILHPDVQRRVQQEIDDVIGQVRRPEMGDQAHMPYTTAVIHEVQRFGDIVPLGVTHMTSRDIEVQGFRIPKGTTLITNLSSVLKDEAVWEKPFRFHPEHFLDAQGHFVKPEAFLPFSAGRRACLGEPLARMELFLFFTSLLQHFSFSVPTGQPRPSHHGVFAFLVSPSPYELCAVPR
Melanocortin receptor 3, sequence (P41968 whole entry): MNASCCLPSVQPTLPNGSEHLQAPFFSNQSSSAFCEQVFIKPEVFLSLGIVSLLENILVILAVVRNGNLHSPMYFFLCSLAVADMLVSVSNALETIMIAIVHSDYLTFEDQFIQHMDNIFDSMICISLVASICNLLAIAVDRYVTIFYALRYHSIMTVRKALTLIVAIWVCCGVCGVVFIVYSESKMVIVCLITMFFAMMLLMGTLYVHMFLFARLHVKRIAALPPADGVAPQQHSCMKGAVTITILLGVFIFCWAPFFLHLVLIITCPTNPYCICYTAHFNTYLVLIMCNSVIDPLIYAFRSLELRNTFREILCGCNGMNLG
Cytochrome P450 2C19, sequence (P33261 whole entry): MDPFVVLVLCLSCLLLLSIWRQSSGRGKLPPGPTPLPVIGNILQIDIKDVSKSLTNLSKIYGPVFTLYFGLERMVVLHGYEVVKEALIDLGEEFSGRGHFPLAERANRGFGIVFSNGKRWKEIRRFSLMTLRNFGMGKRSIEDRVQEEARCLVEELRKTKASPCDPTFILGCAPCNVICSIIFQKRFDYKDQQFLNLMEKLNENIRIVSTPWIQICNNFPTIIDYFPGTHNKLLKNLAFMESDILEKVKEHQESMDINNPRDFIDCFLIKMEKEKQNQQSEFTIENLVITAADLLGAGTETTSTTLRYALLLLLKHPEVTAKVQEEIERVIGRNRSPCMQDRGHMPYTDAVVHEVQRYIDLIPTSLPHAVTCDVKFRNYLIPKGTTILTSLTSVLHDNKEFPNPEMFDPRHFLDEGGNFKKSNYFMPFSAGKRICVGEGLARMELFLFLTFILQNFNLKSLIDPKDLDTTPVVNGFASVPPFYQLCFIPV

Row | Structure (SMILES) | IC50 [1] | IC50 (Cytochrome P450 2C19) | Ki (Cytochrome P450 2C19) | IC50 [2] | Ki [2] | IC50 [3] | Ki [3] | IC50 [4] | Ki [4] | IC50 (Melanocortin receptor 3) | IC50 (Cytochrome P450 2D6) | Ki (Cytochrome P450 2D6) | IC50 (Cytochrome P450 2E1) | Ki (Cytochrome P450 2E1) | pIC50 ([3]; read-out: IC50) | pKi ([3]; read-out: Ki) | Ki [1] | Ki (Melanocortin receptor 3)
1 | c1ccc(Nc2ccc(Nc3ccccc3)cc2)cc1 | Not Active | Not Active | Not Active | Not Active | Not Active | Not Active | Not Active | Not Active | Not Active | Not Active | Not Active | Not Active | Not Active | Not Active | – | – | – | –
2 | COc1cc2c3cc1Oc1cc(ccc1O)C[C@@H]1c4c(cc(OC)c(O)c4Oc4ccc(cc4)C[C@@H]3N(C)CC2)CC[N+]1(C)C.[Cl-] | Not Active | Not Active | Not Active | Not Active | Not Active | Not Active | Not Active | Not Active | Not Active | Not Active | Not Active | Not Active | Not Active | Not Active | – | – | – | –
3 | NC(=O)N1c2ccccc2CCc2ccccc21 | Not Active | Not Active | Not Active | Not Active | Not Active | Not Active | Not Active | Not Active | Not Active | Not Active | Not Active | Not Active | Not Active | Not Active | – | – | – | –
4 | O=C1CC[C@@H](N2C(=O)c3ccccc3C2=O)C(=O)N1 | Not Active | Not Active | Not Active | Not Active | Not Active | Not Active | Not Active | Not Active | Not Active | Not Active | Not Active | Not Active | Not Active | Not Active | – | – | – | –
5 | Cc1onc(O)c1CC(N)C(=O)O (racemic) [(R,S)-AMPA] | Not Active | Not Active | Not Active | Not Active | Not Active | Not Active | Not Active | Not Active | Not Active | Not Active | Not Active | Not Active | Not Active | Not Active | – | – | – | –
6 | Cc1ccc2cc3c(ccc4ccccc43)c3c2c1CC3 [3-METHYLCHOLANTHRENE] | Not Active | Not Active | Not Active | Not Active | Not Active | Not Active | Not Active | Not Active | Not Active | Not Active | Not Active | Not Active | Not Active | Not Active | – | – | – | –
7 | CC[C@@]1(O)C[C@H](O[C@H]2C[C@H](N(C)C)[C@H](O[C@H]3C[C@H](O)[C@H](O[C@H]4CCC(=O)[C@H](C)O4)[C@H](C)O3)[C@H](C)O2)c2c(cc3c(c2O)C(=O)c2c(O)cccc2C3=O)[C@H]1C(=O)OC [ACLARUBICIN] | Not Active | Not Active | Not Active | Not Active | Not Active | Not Active | Not Active | Not Active | Not Active | Not Active | Not Active | Not Active | Not Active | Not Active | – | – | – | –
8 | Nc1nc2c(ncn2COCCO)c(=O)[nH]1 [ACYCLOVIR] | Not Active | Not Active | Not Active | Not Active | Not Active | Not Active | Not Active | Not Active | Not Active | Not Active | Not Active | Not Active | Not Active | Not Active | – | – | – | –
9 | Cc1c(C)c2c(c(C)c1O)CC[C@@](C)(CCC[C@H](C)CCC[C@H](C)CCCC(C)C)O2 [ALPHA-TOCOPHEROL] | Not Active | Not Active | Not Active | Not Active | Not Active | Not Active | Not Active | Not Active | Not Active | Not Active | Not Active | Not Active | Not Active | Not Active | – | – | – | –
10 | NCCCCCC(=O)O [AMINOCAPROIC ACID] | Not Active | Not Active | Not Active | Not Active | Not Active | Not Active | Not Active | Not Active | Not Active | Not Active | Not Active | Not Active | Not Active | Not Active | – | – | – | –
11 | CCC1(c2ccc(N)cc2)CCC(=O)NC1=O (stereo unspecified) [AMINOGLUTETHIMIDE] | Not Active | Not Active | Not Active | Not Active | Not Active | Not Active | Not Active | Not Active | Not Active | Not Active | Not Active | Not Active | Not Active | Not Active | – | – | – | –
12 | Cc1ccc(/N=C/N(C)/C=N/c2ccc(C)cc2C)c(C)c1 [AMITRAZ] | Not Active | Not Active | Not Active | Not Active | Not Active | – | – | Not Active | Not Active | Not Active | Not Active | Not Active | Not Active | Not Active | 7.32 | 7.50 | – | –
13 | CCOC(=O)C1=C(COCCN)NC(C)=C(C(=O)OC)C1c1ccccc1Cl (stereo unspecified) [AMLODIPINE] | Not Active | Not Active | Not Active | Not Active | Not Active | Not Active | Not Active | Not Active | Not Active | Not Active | Not Active | Not Active | Not Active | Not Active | – | – | – | –
14 | COc1ccc(C[C@H]2NC[C@H](O)[C@H]2OC(C)=O)cc1 [ANISOMYCIN] | Not Active | Not Active | Not Active | Not Active | Not Active | Not Active | Not Active | Not Active | Not Active | Not Active | Not Active | Not Active | Not Active | Not Active | – | – | Not Active | Not Active
15 | c1ccc2c(c1)c1cccc3ccc4cccc2c4c31 [BENZO[E]PYRENE] | Not Active | Not Active | Not Active | Not Active | Not Active | Not Active | Not Active | Not Active | Not Active | Not Active | Not Active | Not Active | Not Active | Not Active | – | – | – | –
16 | CNCCc1ccccn1 [BETAHISTINE] | Not Active | Not Active | Not Active | Not Active | Not Active | Not Active | Not Active | Not Active | Not Active | Not Active | Not Active | Not Active | Not Active | Not Active | – | – | – | –
17 | CC(C)C(Br)C(=O)NC(N)=O (stereo unspecified) [BROMISOVALUM] | Not Active | Not Active | Not Active | Not Active | Not Active | Not Active | Not Active | Not Active | Not Active | Not Active | Not Active | Not Active | Not Active | Not Active | – | – | – | –
18 | COCCc1ccc(OCC(O)CNC(C)C)cc1 (stereo unspecified) [METOPROLOL] | Not Active | – | – | Not Active | Not Active | Not Active | Not Active | Not Active | Not Active | Not Active | Not Active | Not Active | Not Active | Not Active | – | – | – | –
19 | CCn1cc(C(=O)O)c(=O)c2cc(F)c(N3CCNCC3)cc21 [NORFLOXACIN] | Not Active | – | – | Not Active | Not Active | Not Active | Not Active | Not Active | Not Active | Not Active | Not Active | Not Active | Not Active | Not Active | – | – | – | –
20 | CCOc1ccc(NC(C)=O)cc1 [PHENACETIN] | Not Active | – | – | Not Active | Not Active | Not Active | Not Active | Not Active | Not Active | Not Active | Not Active | Not Active | Not Active | Not Active | – | – | – | –
